IC50 data for eight compounds are collected here from patent US9511134B2, “Inducing immune responses to influenza virus using polypeptide and nucleic acid compositions” (priority 2006, dated 2016).

Where no end group is shown, it is not given here.

Holding throughout (experiment): biochemical
What all share (type): binding

In test [1] the target is DRB1*1302 (Homo sapiens, UniProt P01903+P01911, A100E/A169T/K41T/L162R/M171V/P40S/Q125H/Q178H/Q39Y/Q99D/R42S/S66N/T262R/V115G/W38E/Y61H). The following applies: read-out: IC50 nM to purified HLA DRB1*1302.
Chain of DRB1*1302 (P01903 26-254 limits assumed, other chains not shown): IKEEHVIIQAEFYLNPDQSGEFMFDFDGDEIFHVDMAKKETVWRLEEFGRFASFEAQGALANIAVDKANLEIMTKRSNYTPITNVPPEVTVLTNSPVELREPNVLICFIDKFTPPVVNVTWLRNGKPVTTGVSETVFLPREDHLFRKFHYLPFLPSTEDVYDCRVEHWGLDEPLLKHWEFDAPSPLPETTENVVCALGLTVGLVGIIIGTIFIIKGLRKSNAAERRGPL
Test [2] concerns the target T1, DRB1*1501 (Homo sapiens, UniProt P01903+P01911).
T1 construct: made in house; host or cells: EBV-transformed homozygous human B cell lines, transfected fibroblasts or single-allele 721.221 transfectants
The following applies: read-out: IC50 nM to purified HLA DRB1*1501.

The target in test [3] is T2, DRB1*0101 (Homo sapiens, UniProt P01903+P01911, A100R/D57E/F55L/F60I/F76Y/I96L/L162R/M171V/P40L/Q125E/R42F/V115G/Y59C).
T2 construct: made in house; host or cells: EBV-transformed homozygous human B cell lines, transfected fibroblasts or single-allele 721.221 transfectants
The following applies: IC50 nM to purified HLA DRB1*0101.

In test [4] the target is T3, DRB1*0401 (Homo sapiens, UniProt P01903+P01911, A100K/A169T/F76Y/I96L/K127E/L162R/M171V/N62H/P40V/Q125Y/R42H/S133A/S149N/S66Y/V115G/V209L/W38E).
T3 construct: made in house; host or cells: EBV-transformed homozygous human B cell lines, transfected fibroblasts or single-allele 721.221 transfectants
Conditions: read-out: IC50 nM to purified HLA DRB1*0401.

As a reminder, the IC50 is the concentration that inhibits the measured activity by half. `CC[C@H](C)[C@H](N)C(=O)NCC(=O)N[C@@H](CC(N)=O)C(=O)N[C@@H](CCSC)C(=O)N[C@H](C(=O)N[C@@H](CO)C(=O)N[C@H](C(=O)N[C@@H](Cc1c[nH]c2ccccc12)C(=O)N[C@H](C(=O)N[C@@H](CO)C(=O)N[C@@H](Cc1c[nH]cn1)C(=O)N[C@@H](CO)C(=O)N[C@H](C(=O)N[C@@H](Cc1c[nH]cn1)C(=O)N[C@H](C(=O)NCC(=O)O)[C@@H](C)O)[C@@H](C)CC)C(C)C)[C@@H](C)CC)[C@@H](C)CC` [Flu.NA.26]: the IC50 was determined as 5950 nM in test [1], 81 nM in test [2] and 1050 nM in test [3].

As to `CC(C)C[C@H](NC(=O)[C@H](C)NC(=O)CNC(=O)[C@H](CCC(N)=O)NC(=O)[C@@H](NC(=O)[C@H](CC(C)C)NC(=O)[C@H](Cc1ccccc1)NC(=O)[C@H](Cc1ccccc1)NC(=O)[C@@H](NC(=O)[C@@H](N)CCCNC(=N)N)[C@@H](C)O)[C@@H](C)O)C(=O)N[C@@H](CC(C)C)C(=O)N[C@@H](CC(N)=O)C(=O)N[C@@H](CC(=O)O)C(=O)N[C@@H](CCCCN)C(=O)N[C@@H](Cc1c[nH]cn1)C(=O)N[C@@H](CO)C(=O)O` [Flu.NA.110], the IC50 is 251 nM in test [4], 3210 nM in test [1], 790 nM in test [2] and 16 nM in test [3].

Consider `CC[C@H](C)[C@H](NC(=O)[C@H](Cc1ccc(O)cc1)NC(=O)[C@@H](NC(=O)[C@@H](NC(=O)[C@@H]1CCCN1C(=O)[C@H](CC(N)=O)NC(=O)[C@H](CCC(N)=O)NC(=O)[C@H](Cc1ccc(O)cc1)NC(=O)[C@H](CC(C)C)NC(=O)[C@H](CCCCN)NC(=O)[C@@H](NC(=O)[C@@H](N)CCC(N)=O)[C@@H](C)O)[C@@H](C)O)[C@@H](C)O)C(=O)N[C@@H](CO)C(=O)N[C@H](C(=O)NCC(=O)N[C@H](C(=O)O)[C@@H](C)O)C(C)C` [Flu.HA.203], for which the figures for the IC50 in test [1] and in test [2] were 18 nM and 60 nM, respectively.

Consider `CC[C@H](C)[C@H](NC(=O)[C@H](CC(C)C)NC(=O)[C@H](Cc1c[nH]c2ccccc12)NC(=O)[C@@H](NC(=O)[C@@H](NC(=O)[C@H](CC(N)=O)NC(=O)[C@H](CCCNC(=N)N)NC(=O)[C@H](Cc1ccccc1)NC(=O)[C@H](Cc1ccccc1)NC(=O)[C@H](CO)NC(=O)[C@H](CO)NC(=O)[C@@H](N)CCCCN)C(C)C)C(C)C)C(=O)N[C@@H](CCCCN)C(=O)N[C@@H](CCCCN)C(=O)N[C@@H](CC(N)=O)C(=O)O` [Flu.HA.156], for which the IC50 in test [4] came to 474 nM; in test [1] it was 20 nM; in test [2], 832 nM; in test [3] it was 46 nM.

`CC[C@H](C)[C@H](NC(=O)[C@H](CC(N)=O)NC(=O)[C@H](CC(N)=O)NC(=O)[C@H](CCCNC(=N)N)NC(=O)[C@H](Cc1c[nH]c2ccccc12)NC(=O)[C@H](CO)NC(=O)[C@H](CCCCN)NC(=O)[C@@H](NC(=O)[C@@H](NC(=O)[C@H](CC(=O)O)NC(=O)[C@@H](NC(=O)[C@@H](NC(=O)[C@@H](NC(=O)CNC(=O)[C@H](CC(N)=O)NC(=O)[C@@H](N)Cc1ccc(O)cc1)[C@@H](C)CC)[C@@H](C)CC)[C@@H](C)O)[C@@H](C)O)[C@@H](C)CC)C(=O)O` [Flu.NA.188]: the IC50 in test [1] amounted to 370 nM; in test [2], 31 nM.

For MEWLKTRPILSPLTK [Flu.M1.46], the IC50 in test [4] was 528 nM; in test [1], 3870 nM; in test [2], 111 nM; in test [3] it was 52 nM.

For the compound `CC[C@H](C)[C@H](NC(=O)CNC(=O)[C@H](CC(N)=O)NC(=O)[C@H](Cc1ccc(O)cc1)NC(=O)[C@H](CCCCN)NC(=O)[C@H](CC(C)C)NC(=O)[C@@H](NC(=O)[C@H](C)NC(=O)[C@@H](N)C(C)C)C(C)C)C(=O)N[C@H](C(=O)N[C@H](C(=O)N[C@@H](CC(=O)O)C(=O)N[C@H](C(=O)N[C@H](C(=O)N[C@@H](CCCCN)C(=O)N[C@@H](CO)C(=O)N[C@@H](Cc1c[nH]c2ccccc12)C(=O)O)[C@@H](C)CC)[C@@H](C)O)[C@@H](C)O)[C@@H](C)CC` [Flu.NA.183], the IC50 stood at 319 nM in test [4], 19 nM in test [2] and 3390 nM in test [3].

With TRPILSPLTKGILGF [Flu.M1.51], the results for the IC50 in test [1], in test [2] and in test [3] were 292 nM, 140 nM and 423 nM, respectively.
